The text below walks through data of patent US8815007B2, “Alkoxylated polyamines and polyetheramine polyol compositions for foam control” (priority 2007, dated 2014).

This series in a line: Equilibrium surface tension, double-probe bubble tensiometer. It counts as physicochemical. To be noted: one bubble per second. As to the method:
The antifoaming properties of the above compositions were evaluated using the blender foam test as described below. Surface tensions were determined using a […] OC-6000 double-probe bubble tensiometer. Equilibrium surface tensions were determined on 0.1% active solutions in deionized water at 25° C. by using a bubble rate of one bubble per second. […] Surface tension measurements were carried out using a Sensation QC-6000 double-probe bubble tensiometer from the Sensation Division of Chem-Dyne Research Corp. of Mesa, Ariz.

As to “diethylenetriamine/2 mol 1-epoxyoctane adduct [Example 2]”, the Surface Tension by setting is: (Table 2, 0.1% active solutions in deionized water at 25° C.) 36.2 mN/m; (Table 3, 0.1% active solutions in deionized water at 25 deg C.) 36.2 mN/m.
